Measured values published in patent US8586611B2 (priority 2005, dated 2013).
Like-named read-outs stand apart in the source and are kept apart here.

Tests used:
Format in all cases: in vivo
[1] = test system: Phytophthora infestans; experiment: whole plant or invertebrate; settings: for Test C disease rating (100 = 100% disease control, 0 = no disease control): tomato late blight; for pest or weed control at 40 ppm: Phytophthora infestans, in Solanum lycopersicum, 144 h, read-out: Test C disease rating (100 = 100% disease control, 0 = no disease control)
[2] = test system: Plasmopara viticola; experiment: Test B: grape downy mildew, spray 24 h after inoculation (disease rating, 100 = 100% disease control); settings: for pest or weed control at 40 ppm: Plasmopara viticola, 144 h, read-out: Test B disease rating (100 = 100% disease control, 0 = no disease control)
Method in brief: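 Grape seedlings were inoculated with Plasmopara viticola and held 24 h saturated at 20 °C, then sprayed to run-off with compound suspension (acetone/water with 250 ppm Trem 014; 200 ppm ≈ 500 g/ha). After 5 days at 20 °C and 24 h saturation, disease was rated from 0 to 100% control versus untreated.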

[3] = test system: Erysiphe graminis f. sp. tritici; experiment: Test E: wheat powdery mildew, spray the day before inoculation (disease rating, 100 = 100% disease control); settings: for pest or weed control at 40 ppm: Blumeria graminis, topical, 168 h, read-out: Test E disease rating (100 = 100% disease control, 0 = no disease control)
Method in brief: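 Wheat seedlings sprayed to run-off with compound suspended in acetone/water 50/50 with 250 ppm Trem 014 (200 ppm equivalent to 500 g/ha); inoculated next day with Erysiphe graminis f. sp. tritici spore dust. Kept 7 days at 20° C, then rated 0–100% disease control versus controls.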

[4] = test system: Phytophthora infestans; experiment: whole plant or invertebrate; settings: for Test D disease rating (100 = 100% disease control, 0 = no disease control): tomato late blight; for pest or weed control at 40 ppm: Phytophthora infestans, in Solanum lycopersicum, topical, 96 h, read-out: Test D disease rating (100 = 100% disease control, 0 = no disease control)
[5] = spray the day before inoculation, compounds without asterisk (not 40 or 10 ppm)
[6] = spray 24 h after inoculation, compounds without asterisk (not 40 or 10 ppm)
[7] = spray 17 h after inoculation, compounds without asterisk (not 40 or 10 ppm)
[8] = spray 24 h after inoculation, tested at 40 ppm
[9] = spray the day before inoculation, tested at 40 ppm
[10] = spray the day before inoculation, tested at 10 ppm
[11] = sprayed the day before inoculation, unmarked compounds (no asterisk, not 40 or 10 ppm)
[12] = sprayed 24 h after inoculation, unmarked compounds (no asterisk, not 40 or 10 ppm)
[13] = sprayed the day before inoculation, 7 days at 20° C., unmarked compounds (no asterisk, not 40 or 10 ppm)
[14] = sprayed 17 h after inoculation, unmarked compounds (no asterisk, not 40 or 10 ppm)
[15] = spray 17 h after inoculation, tested at 40 ppm

Compound | Test C disease rating (100 = 100% disease control, 0 = no disease control) [1, 5] | Test B disease rating (100 = 100% disease control, 0 = no disease control) [2, 6] | Test E disease rating (100 = 100% disease control, 0 = no disease control) [3, 5] | Test D disease rating (100 = 100% disease control, 0 = no disease control) [4, 7] | other results
Cc1ccc(C)c(CC(=O)N2CCC(c3nc(C(=O)N(C)C4CCCc5sccc54)cs3)CC2)c1 (centres unmarked) [compound 134] | 51% | 97% | 0% | 100% | 
Cc1cc(C(F)(F)F)nn1CC(=O)N1CCC(c2nc(C(=O)N(C)[C@H](C(N)=O)c3ccccc3)cs2)CC1 [compound 247] | 90% | 0% | 0% | 17% | 
CN(C(=O)c1csc(C2CCN(C(=O)Cn3nc(C(F)(F)F)cc3Cl)CC2)n1)[C@@H]1CCCc2ccccc21 [Compound 249, 2-[1-[[5-chloro-3-(trifluoromethyl)-1H-pyrazol-1-yl]acetyl]-4-piperidinyl]-N-methyl-N-[(1R)-1,2,3,4-tetrahydro-1-naphthalenyl]-4-thiazolecarboxamide] |  |  |  |  | pest or weed control at 40 ppm [1]: 100%; pest or weed control at 40 ppm [2, 8]: 100%; pest or weed control at 40 ppm [3, 9]: 0%; pest or weed control at 40 ppm [4]: 99%
C[C@H](c1ccccc1)N(C)C(=O)c1csc(C2CCN(C(=O)Cn3cnc(C(F)(F)F)n3)CC2)n1 [compound 122] | 53% | 28% | 17% | 96% | 
Cc1cc(C(F)(F)F)nn1CC(=O)N1CCC(c2nc(C(=O)N(C)C3c4ccccc4C=CC3C)cs2)CC1 (centres unmarked) [compound 230] | 100% | 87% | 0% | 94% | 
Cc1cc(C(F)(F)F)nn1CC(=O)N1CCC(c2nc(C(=O)N(C)C3CCCc4occc43)cs2)CC1 (centres unmarked) [compound 183] |  |  |  |  | Test C disease rating (100 = 100% disease control, 0 = no disease control) [1, 10]: 40%; Test B disease rating (100 = 100% disease control, 0 = no disease control) ([2]; spray 24 h after inoculation, tested at 10 ppm): 0%; Test E disease rating (100 = 100% disease control, 0 = no disease control) [3, 10]: 0%; Test D disease rating (100 = 100% disease control, 0 = no disease control) ([4]; spray 17 h after inoculation, tested at 10 ppm): 16%
Cc1cc(C(F)(F)F)nn1CC(=O)N1C2CCC1CC(c1nc(C(=O)N(C)[C@@H]3CCCc4ccccc43)cs1)C2 (some centres unmarked) [compound 316] |  |  |  |  | Test C disease rating (100 = 100% disease control, 0 = no disease control) [1, 11]: 100; Test B disease rating (100 = 100% disease control, 0 = no disease control) [2, 12]: 97; Test E disease rating (100 = 100% disease control, 0 = no disease control) [3, 13]: 0; Test D disease rating (100 = 100% disease control, 0 = no disease control) [4, 14]: 97
COc1cccc([C@@H](C)NC(=O)c2csc(C3CCN(C(=O)Cc4cccc(Br)c4)CC3)n2)c1 [compound 281] |  |  |  |  | Test C disease rating (100 = 100% disease control, 0 = no disease control) [1, 11]: 0; Test B disease rating (100 = 100% disease control, 0 = no disease control) [2, 12]: 15; Test E disease rating (100 = 100% disease control, 0 = no disease control) [3, 13]: 0; Test D disease rating (100 = 100% disease control, 0 = no disease control) [4, 14]: 0
Cc1cc(C(F)(F)F)nn1CC(=O)N1CCC(c2nc(C(=O)N(C)C3c4ccccc4CC3(C)C)cs2)CC1 (centres unmarked) [Compound 222, N-(2,3-dihydro-2,2-dimethyl-1H-inden-1-yl)-N-methyl-2-[1-[[5-methyl-3-(trifluoromethyl)-1H-pyrazol-1-yl]acetyl]-4-piperidinyl]-4-thiazolecarboxamide] |  |  |  |  | pest or weed control at 40 ppm [1]: 100%; pest or weed control at 40 ppm [2, 8]: 100%; pest or weed control at 40 ppm [3, 9]: 0%; pest or weed control at 40 ppm [4]: 99%
Cc1ccc(C)c(CC(=O)N2CCC(c3nc(C(=O)N(C)[C@@H]4CCCc5ccccc54)co3)CC2)c1 [Compound 153, 2-[1-[(2,5-dimethylphenyl)acetyl]-4-piperidinyl]-N-methyl-N-[(1R)-1,2,3,4-tetrahydro-1-naphthalenyl]-4-oxazolecarboxamide] |  |  |  |  | pest or weed control at 40 ppm [1]: 100%; pest or weed control at 40 ppm [2, 8]: 99%; pest or weed control at 40 ppm [3, 9]: 0%; pest or weed control at 40 ppm [4]: 98%
Cc1ccc(C)c(CC(=O)N2CCC(c3nc(C(=O)N(C)C(CC(C)C)c4ccccc4)cs3)CC2)c1 (centres unmarked) [compound 97] | 86% | 53% | 0% | 0% | 
CN(C(=O)c1csc(C2CCN(C(=O)Cc3cccc(Cl)n3)CC2)n1)[C@@H]1CCCc2ccccc21 [compound 214] | 99% | 98% | 0% | 99% | 
CN(C(=O)c1csc(C2CCN(C(=O)Cn3nc(C(F)(F)F)cc3C(C)(C)C)CC2)n1)[C@@H]1CCCc2ccccc21 [compound 239] |  |  |  |  | Test C disease rating (100 = 100% disease control, 0 = no disease control) [1, 9]: 57%; Test B disease rating (100 = 100% disease control, 0 = no disease control) [2, 8]: 63%; Test E disease rating (100 = 100% disease control, 0 = no disease control) [3, 9]: 0%; Test D disease rating (100 = 100% disease control, 0 = no disease control) [4, 15]: 0%
Cc1ccc(C)c(CC(=O)N2CCC(c3nc(C(=O)N(C)C4CCOc5ccccc54)cs3)CC2)c1 (centres unmarked) [compound 137] | 51% | 100% | 0% | 93% | 
COc1cc2c(cc1OC)CN(C(=O)c1csc(C3CCN(C(=O)Cn4nc(C(F)(F)F)cc4C)CC3)n1)CC2 [compound 297] |  |  |  |  | Test C disease rating (100 = 100% disease control, 0 = no disease control) [1, 11]: 63; Test B disease rating (100 = 100% disease control, 0 = no disease control) [2, 12]: 39; Test E disease rating (100 = 100% disease control, 0 = no disease control) [3, 13]: 0; Test D disease rating (100 = 100% disease control, 0 = no disease control) [4, 14]: 33
CC(c1cccnc1)N(C)C(=O)c1csc(C2CCN(C(=O)Cc3cccc(C(F)(F)F)c3)CC2)n1 (centres unmarked) [compound 66] | 54% | 2% | 0% | 42% | 
COC1CCC(N(C)C(=O)c2csc(C3CCN(C(=O)Cn4nc(C(F)(F)F)cc4C)CC3)n2)c2ccccc21 (centres unmarked) [compound 213] |  |  |  |  | Test C disease rating (100 = 100% disease control, 0 = no disease control) [1, 9]: 100%; Test B disease rating (100 = 100% disease control, 0 = no disease control) [2, 8]: 99%; Test E disease rating (100 = 100% disease control, 0 = no disease control) [3, 9]: 0%; Test D disease rating (100 = 100% disease control, 0 = no disease control) [4, 15]: 99%
CC(C)c1nccn1CC(=O)N1CCC(c2nc(C(=O)N(C)[C@H](C)c3ccccc3)cs2)CC1 [compound 139] | 0% | 0% | 0% | 0% | 
Cc1cc(C(F)(F)F)nn1CC(=O)N1CCC(c2nc(C(=O)N(C)[C@@H]3CC[C@@H](O)c4ccccc43)cs2)CC1 (racemic) [Compound 206, N-methyl-2-[1-[[5-methyl-3-(trifluoromethyl)-1H-pyrazol-1-yl]acetyl]-4-piperidinyl]-N-[(1R,4R)-1,2,3,4-tetrahydro-4-hydroxy-1-naphthalenyl]-4-thiazolecarboxamide] |  |  |  |  | pest or weed control at 40 ppm [1]: 100%; pest or weed control at 40 ppm [2, 8]: 99%; pest or weed control at 40 ppm [3, 9]: 0%; pest or weed control at 40 ppm [4]: 99%
Cc1cc(C(F)(F)F)nn1CC(=O)N1CCC(c2nc(C(=O)N(C)C3c4ccccc4CC3O)cs2)CC1 (centres unmarked) [compound 207] | 99% | 36% | 0% | 99% | 
COc1ccccc1NC(=O)N1CCC(c2nc(C(=O)N(C)[C@H](C)c3ccccc3)co2)CC1 [compound 157] | 100% | 63% | 0% | 91% | 
Cc1cc(C(C)C)nn1CC(=O)N1CCC(c2nc(C(=O)N(C)[C@H](C)c3ccccc3)cs2)CC1 [compound 127] | 92% | 0% | 0% | 0% | 
Cc1ccc(C)c(CC(=O)N2CCC(c3nc(C(=O)N(C)[C@H](C)C4CCCCC4)cs3)CC2)c1 [compound 166] | 68% | 34% | 0% | 16% | 
